Laboratory results published in ChEMBL document CHEMBL5465560, “Selectivity Literature for EUbOPEN Chemogenomic Library” (2024).

Legend:
[1] = molecular target: T1, Serine/threonine-protein kinase TAO1 (Homo sapiens) (UniProt Q7L7X3); test: Selectivity interaction (KinomeScan (DiscoverX)) EUB0000229b TAOK1; details: at 10 µM
T1 sequence (whole entry): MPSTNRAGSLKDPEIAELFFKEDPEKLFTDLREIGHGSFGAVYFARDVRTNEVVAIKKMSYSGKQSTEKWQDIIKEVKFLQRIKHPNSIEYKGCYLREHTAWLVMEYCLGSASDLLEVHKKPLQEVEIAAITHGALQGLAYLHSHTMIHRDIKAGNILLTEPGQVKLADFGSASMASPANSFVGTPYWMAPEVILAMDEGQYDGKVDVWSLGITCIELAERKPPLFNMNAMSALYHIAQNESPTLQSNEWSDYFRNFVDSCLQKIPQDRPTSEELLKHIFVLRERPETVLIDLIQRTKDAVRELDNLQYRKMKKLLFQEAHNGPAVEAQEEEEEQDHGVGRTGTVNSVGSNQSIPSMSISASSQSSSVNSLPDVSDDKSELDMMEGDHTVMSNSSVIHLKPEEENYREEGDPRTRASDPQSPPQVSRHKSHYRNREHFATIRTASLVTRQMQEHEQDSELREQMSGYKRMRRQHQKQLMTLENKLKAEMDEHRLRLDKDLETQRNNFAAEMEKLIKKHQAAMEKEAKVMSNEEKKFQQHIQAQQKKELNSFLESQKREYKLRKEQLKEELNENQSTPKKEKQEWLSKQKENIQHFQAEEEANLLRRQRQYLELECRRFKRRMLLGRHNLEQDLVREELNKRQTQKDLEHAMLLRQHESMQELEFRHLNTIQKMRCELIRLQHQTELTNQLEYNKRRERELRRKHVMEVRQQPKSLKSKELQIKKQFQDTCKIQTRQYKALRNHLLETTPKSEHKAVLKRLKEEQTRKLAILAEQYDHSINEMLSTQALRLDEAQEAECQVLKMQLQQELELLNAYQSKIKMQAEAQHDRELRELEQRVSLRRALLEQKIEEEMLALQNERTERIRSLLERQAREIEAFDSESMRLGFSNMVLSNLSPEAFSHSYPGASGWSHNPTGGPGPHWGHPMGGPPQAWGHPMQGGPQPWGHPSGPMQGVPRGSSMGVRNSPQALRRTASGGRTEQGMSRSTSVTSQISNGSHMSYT

[2] = molecular target: Mitogen-activated protein kinase 14 (Homo sapiens, UniProt Q16539); test: Selectivity interaction (ProQinase) EUB0000171b MAPK14
[3] = molecular target: Serine/threonine-protein kinase SIK3 (Homo sapiens) (UniProt Q9Y2K2); test: Selectivity interaction (KinomeScan (DiscoverX)) EUB0000666a SIK3; details: at 10 µM
[4] = molecular target: RAC-gamma serine/threonine-protein kinase (Homo sapiens, UniProt Q9Y243); test: Selectivity interaction (Rxn Biology Kinase assay) EUB0001632a AKT3; details: at 10 µM
[5] = molecular target: T2, Serine/threonine-protein kinase Nek2 (Homo sapiens) (UniProt P51955); test: Selectivity interaction (Kinase panel (Z-LYTE Assay)) EUB0001632a NEK2; details: at 10 µM
T2 sequence (whole entry): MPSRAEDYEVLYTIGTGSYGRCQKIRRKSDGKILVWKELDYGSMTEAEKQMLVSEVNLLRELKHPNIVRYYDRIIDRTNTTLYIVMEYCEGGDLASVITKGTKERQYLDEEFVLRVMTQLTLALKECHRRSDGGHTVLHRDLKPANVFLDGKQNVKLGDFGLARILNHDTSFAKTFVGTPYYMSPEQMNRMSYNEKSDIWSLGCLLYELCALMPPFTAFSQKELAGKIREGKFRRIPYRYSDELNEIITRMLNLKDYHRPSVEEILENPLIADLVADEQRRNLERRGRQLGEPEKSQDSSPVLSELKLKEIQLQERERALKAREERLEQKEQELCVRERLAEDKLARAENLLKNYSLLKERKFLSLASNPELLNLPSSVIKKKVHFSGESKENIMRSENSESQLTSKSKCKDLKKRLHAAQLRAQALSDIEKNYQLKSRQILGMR

[6] = molecular target: 5-hydroxytryptamine receptor 2A (Homo sapiens, UniProt P28223); test: Selectivity interaction (Panel of kinases, GPCRs, ion channels and transporters (enzymatic assay)) EUB0000223bCl HTR2A
[7] = molecular target: Death-associated protein kinase 2 (Homo sapiens) (UniProt Q9UIK4); test: Selectivity interaction (KinomeScan (DiscoverX)) EUB0000607a DAPK2; details: at 10 µM
[8] = molecular target: Serine/threonine-protein kinase/endoribonuclease IRE1 (Homo sapiens) (UniProt O75460); test: Selectivity interaction (KinomeScan (DiscoverX)) EUB0000607a ERN1; details: at 10 µM
[9] = molecular target: Homeodomain-interacting protein kinase 3 (Homo sapiens, UniProt Q9H422); test: Selectivity interaction (KinomeScan (DiscoverX)) EUB0000607a HIPK3; details: at 10 µM
[10] = molecular target: Vascular endothelial growth factor receptor 3 (Homo sapiens, UniProt P35916); test: Selectivity interaction (Kinase screening (Nanosyn)) EUB0000604a FLT4
[11] = molecular target: Protein arginine N-methyltransferase 3 (Homo sapiens, UniProt O60678); test: Selectivity interaction (Scintillation proximity assays) EUB0000230b PRMT3
[12] = molecular target: T3, Mitogen-activated protein kinase kinase kinase 3 (Homo sapiens) (UniProt Q99759); test: Selectivity interaction (KinomeScan (DiscoverX)) EUB0001619a MAP3K3; details: at 1 µM
T3 sequence (whole entry): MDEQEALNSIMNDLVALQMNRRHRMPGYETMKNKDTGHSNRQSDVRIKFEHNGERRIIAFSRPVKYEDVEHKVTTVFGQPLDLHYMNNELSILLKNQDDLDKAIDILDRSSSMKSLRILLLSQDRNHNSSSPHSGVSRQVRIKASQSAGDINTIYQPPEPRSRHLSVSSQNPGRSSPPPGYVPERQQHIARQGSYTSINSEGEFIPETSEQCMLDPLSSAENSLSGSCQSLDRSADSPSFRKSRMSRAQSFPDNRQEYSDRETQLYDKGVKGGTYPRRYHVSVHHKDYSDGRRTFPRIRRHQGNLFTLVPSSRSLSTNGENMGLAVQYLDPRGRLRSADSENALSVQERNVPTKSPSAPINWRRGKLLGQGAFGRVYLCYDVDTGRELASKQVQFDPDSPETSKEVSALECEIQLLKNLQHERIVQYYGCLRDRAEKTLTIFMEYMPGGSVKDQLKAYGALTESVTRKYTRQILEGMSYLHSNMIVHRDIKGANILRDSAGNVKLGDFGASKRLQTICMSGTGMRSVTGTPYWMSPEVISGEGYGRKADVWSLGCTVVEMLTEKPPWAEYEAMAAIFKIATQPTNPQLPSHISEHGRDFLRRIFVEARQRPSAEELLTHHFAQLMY

Chain of Mitogen-activated protein kinase 14 (Q16539 whole entry): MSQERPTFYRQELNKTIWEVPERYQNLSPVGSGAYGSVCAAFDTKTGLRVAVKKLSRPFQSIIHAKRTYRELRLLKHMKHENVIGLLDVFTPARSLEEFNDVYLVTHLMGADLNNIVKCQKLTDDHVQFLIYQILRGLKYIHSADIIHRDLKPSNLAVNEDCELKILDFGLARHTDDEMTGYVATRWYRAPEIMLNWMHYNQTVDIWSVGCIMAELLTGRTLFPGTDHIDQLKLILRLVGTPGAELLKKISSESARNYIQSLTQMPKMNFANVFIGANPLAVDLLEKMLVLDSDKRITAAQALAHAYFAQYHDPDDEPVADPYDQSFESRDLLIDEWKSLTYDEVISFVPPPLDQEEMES
Chain of Protein arginine N-methyltransferase 3 (O60678 whole entry): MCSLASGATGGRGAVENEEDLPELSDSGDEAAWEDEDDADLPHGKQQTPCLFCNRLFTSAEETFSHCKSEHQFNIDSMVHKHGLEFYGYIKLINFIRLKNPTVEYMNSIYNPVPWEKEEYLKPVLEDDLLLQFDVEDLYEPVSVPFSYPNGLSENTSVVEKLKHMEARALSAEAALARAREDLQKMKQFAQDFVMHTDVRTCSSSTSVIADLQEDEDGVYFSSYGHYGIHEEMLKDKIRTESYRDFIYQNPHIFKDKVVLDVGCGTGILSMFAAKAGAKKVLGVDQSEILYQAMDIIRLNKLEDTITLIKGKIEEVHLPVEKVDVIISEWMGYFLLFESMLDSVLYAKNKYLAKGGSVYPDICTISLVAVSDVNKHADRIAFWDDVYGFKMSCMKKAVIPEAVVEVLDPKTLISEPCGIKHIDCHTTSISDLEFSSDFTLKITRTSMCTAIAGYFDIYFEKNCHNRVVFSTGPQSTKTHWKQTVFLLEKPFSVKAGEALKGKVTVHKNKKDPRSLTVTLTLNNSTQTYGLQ
Chain of Homeodomain-interacting protein kinase 3 (Q9H422 whole entry, looked up): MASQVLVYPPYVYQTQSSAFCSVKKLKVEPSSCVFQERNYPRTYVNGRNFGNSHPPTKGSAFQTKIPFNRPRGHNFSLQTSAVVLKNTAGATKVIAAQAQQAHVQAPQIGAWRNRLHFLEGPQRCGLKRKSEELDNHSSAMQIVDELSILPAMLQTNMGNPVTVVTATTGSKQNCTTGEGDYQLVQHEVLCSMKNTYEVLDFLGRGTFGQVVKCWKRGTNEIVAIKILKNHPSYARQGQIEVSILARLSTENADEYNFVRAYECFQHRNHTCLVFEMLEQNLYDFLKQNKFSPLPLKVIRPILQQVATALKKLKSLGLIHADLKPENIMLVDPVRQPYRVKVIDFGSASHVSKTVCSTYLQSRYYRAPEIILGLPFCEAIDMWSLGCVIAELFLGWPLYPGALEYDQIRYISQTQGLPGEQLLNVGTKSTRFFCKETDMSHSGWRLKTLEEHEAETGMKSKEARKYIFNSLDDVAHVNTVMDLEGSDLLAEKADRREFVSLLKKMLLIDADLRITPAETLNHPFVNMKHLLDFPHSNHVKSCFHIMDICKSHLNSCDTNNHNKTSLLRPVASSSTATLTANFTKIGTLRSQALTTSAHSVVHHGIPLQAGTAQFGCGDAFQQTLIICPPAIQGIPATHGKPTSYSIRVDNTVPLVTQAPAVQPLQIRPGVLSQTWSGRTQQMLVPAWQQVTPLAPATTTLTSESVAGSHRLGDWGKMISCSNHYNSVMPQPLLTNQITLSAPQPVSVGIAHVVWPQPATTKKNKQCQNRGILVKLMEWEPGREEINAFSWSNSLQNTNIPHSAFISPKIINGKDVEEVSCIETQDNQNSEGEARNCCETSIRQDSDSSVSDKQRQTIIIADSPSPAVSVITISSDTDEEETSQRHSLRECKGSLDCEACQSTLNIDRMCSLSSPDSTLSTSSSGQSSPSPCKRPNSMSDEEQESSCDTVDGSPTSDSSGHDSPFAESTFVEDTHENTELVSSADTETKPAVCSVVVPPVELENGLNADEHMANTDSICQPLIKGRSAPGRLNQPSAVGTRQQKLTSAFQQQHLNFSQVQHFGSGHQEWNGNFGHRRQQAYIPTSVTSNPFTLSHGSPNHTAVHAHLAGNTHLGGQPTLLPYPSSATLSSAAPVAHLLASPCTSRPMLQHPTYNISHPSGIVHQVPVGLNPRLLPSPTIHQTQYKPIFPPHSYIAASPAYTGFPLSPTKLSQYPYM
Chain of Death-associated protein kinase 2 (Homo sapiens) (Q9UIK4 whole entry, looked up): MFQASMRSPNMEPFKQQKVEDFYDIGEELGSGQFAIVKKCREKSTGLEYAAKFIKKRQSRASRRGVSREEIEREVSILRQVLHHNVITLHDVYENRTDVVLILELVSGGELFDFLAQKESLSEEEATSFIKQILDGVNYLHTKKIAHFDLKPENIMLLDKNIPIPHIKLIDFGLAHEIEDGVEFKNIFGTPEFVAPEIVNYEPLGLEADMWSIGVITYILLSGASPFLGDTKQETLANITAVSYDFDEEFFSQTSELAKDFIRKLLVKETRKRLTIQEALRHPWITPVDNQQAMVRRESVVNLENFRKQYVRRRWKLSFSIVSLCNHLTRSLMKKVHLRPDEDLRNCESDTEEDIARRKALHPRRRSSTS
Chain of Vascular endothelial growth factor receptor 3 (P35916 whole entry): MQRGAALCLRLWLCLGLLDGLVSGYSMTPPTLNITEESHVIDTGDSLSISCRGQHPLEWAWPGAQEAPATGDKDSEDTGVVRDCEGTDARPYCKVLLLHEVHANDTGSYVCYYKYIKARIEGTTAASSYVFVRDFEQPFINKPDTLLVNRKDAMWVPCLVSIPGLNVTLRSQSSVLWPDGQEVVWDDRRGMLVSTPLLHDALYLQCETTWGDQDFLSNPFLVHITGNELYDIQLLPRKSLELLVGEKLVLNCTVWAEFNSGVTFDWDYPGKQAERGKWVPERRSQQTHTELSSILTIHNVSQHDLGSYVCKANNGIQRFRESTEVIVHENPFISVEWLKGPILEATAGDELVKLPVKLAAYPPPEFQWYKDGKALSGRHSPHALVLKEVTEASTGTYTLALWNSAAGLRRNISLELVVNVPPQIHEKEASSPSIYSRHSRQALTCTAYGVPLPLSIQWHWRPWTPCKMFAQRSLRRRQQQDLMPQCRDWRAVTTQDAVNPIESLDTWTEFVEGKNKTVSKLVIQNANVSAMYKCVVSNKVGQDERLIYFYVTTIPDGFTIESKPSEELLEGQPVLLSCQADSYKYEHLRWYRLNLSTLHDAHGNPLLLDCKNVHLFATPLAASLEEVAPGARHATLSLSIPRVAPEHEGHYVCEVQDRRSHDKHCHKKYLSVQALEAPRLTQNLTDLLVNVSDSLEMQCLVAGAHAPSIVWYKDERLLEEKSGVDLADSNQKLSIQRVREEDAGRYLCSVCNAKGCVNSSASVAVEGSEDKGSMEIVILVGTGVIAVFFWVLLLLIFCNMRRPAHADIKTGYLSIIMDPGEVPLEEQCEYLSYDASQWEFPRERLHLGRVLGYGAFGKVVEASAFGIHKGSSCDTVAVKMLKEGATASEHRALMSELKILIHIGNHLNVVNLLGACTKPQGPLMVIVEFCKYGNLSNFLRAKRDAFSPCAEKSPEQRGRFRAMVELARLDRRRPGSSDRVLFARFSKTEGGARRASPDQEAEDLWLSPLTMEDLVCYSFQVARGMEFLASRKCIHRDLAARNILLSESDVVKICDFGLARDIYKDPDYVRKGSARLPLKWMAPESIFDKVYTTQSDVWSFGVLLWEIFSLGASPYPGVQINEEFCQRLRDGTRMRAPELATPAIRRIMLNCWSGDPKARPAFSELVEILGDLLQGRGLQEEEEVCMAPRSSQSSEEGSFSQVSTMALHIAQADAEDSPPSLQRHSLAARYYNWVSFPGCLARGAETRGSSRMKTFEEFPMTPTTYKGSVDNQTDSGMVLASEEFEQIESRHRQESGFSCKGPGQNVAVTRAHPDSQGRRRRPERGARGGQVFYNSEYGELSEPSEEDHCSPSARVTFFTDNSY
Chain of Serine/threonine-protein kinase/endoribonuclease IRE1 (Homo sapiens) (O75460 19-977 limits assumed): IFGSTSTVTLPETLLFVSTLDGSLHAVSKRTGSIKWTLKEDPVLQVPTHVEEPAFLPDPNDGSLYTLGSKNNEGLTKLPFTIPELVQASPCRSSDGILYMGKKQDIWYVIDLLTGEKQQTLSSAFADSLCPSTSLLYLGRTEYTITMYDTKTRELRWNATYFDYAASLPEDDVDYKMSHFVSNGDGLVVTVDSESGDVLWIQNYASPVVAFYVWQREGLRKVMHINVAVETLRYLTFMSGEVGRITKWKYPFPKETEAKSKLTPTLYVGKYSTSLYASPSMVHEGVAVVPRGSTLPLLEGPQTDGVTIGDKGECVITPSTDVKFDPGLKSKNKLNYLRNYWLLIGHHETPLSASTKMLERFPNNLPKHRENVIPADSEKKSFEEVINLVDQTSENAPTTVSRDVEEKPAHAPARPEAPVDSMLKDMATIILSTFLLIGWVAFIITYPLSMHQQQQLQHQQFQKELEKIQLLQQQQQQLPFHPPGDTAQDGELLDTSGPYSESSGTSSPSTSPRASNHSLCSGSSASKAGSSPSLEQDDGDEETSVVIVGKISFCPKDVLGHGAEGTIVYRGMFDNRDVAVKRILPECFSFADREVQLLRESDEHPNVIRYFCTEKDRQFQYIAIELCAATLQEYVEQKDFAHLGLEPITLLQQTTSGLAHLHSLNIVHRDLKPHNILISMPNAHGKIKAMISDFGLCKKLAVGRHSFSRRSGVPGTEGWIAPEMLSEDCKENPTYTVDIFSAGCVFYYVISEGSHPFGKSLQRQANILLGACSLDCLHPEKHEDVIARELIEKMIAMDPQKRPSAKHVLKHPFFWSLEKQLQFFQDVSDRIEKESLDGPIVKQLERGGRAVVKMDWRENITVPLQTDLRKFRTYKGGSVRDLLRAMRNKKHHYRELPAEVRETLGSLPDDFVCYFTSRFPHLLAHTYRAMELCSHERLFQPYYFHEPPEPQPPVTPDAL

Question: `COc1cc(N(C)c2ccnc3ccc(C(F)(F)F)cc23)cc(OC)c1OC` was tested. Which % binding [1] did it give?
Answer: Its % binding is 65%.

Question: Which results are given for `C=CC(=O)Nc1cccc(C(=O)Nc2ccc(Nc3cc(-c4[nH]c(SC)nc4C)ccn3)cc2)c1`?
Answer: % of control ([2]; at 1 µM): 90%; % of control ([2]; at 5 µM): 67%

Question: With `O=C(NOC[C@H](O)CO)c1ccc(F)c(F)c1Nc1ccc(I)cc1F` as the compound, how does the % of control [3] read?
Answer: The % of control was 52%.

Question: With `Cn1cc(-n2cnc3c(NCc4nc5cc(Cl)c(Cl)cc5[nH]4)nc(N4CCOCC4)nc32)cn1` as the compound, how does the % of inhibition [4] read?
Answer: The % of inhibition was 6.75%.

Question: And the % of control [5]?
Answer: The % of control was 1.81%.

Question: For `COc1cc(C(=O)N2CC[C@@H](O)[C@@H](N)C2)cc2nc(-c3cc4ccccc4n3CC3CC3)n(C)c12`, which pXC50 [6] is on record?
Answer: Its pXC50 is 4.9 M.

Question: Which % of control [7] does the source give for `CNC(=O)Nc1ccc(-c2nc(N3CC4CCC(C3)O4)c3cnn(C4CCC5(CC4)OCCO5)c3n2)cc1` here?
Answer: Its % of control is 100%.

Question: What about the % of control [8] of the same compound?
Answer: The % of control was 93%.

Question: And the % of control [9]?
Answer: The % of control was 42%.

Question: Which % of inhibition [10] does the source give for `Cc1cnc(Nc2ccc(F)cc2Cl)nc1-c1c[nH]c(C(=O)N[C@H](CO)c2cccc(Cl)c2)c1` here?
Answer: The % of inhibition was 8%.

Question: For `CNCCN1CCC(c2cc(CN(C)C(=O)c3cccc(Oc4ccccc4)c3)ccn2)CC1`, which IC50 [11] is on record?
Answer: Its IC50 is over 10 µM.

Question: Which % of control [12] does the source give for `N#Cc1cccc(-c2c[nH]c3ncnc(N4CCOCC4)c23)c1` here?
Answer: Its % of control is 8.2%.
